Assay results taken from ChEMBL document CHEMBL1145159 (J Med Chem, 2005).
Peptide text beside a SMILES is read from it.

Experiments:
[1] = target: Neuronal acetylcholine receptor; alpha4/beta2 (Homo sapiens, UniProt P17787+P43681); assay: Inhibitory concentration against Nicotinic acetylcholine receptor alpha4-beta2; Range is 0.3-1.5 nM; type: protein-complex assay
[2] = target: Neuronal acetylcholine receptor subunit alpha-7 (Homo sapiens, UniProt P36544); assay: Inhibitory concentration against Nicotinic acetylcholine receptor alpha7; Range is 0.3-1.5 nM
[3] = target: Neuronal acetylcholine receptor; alpha2/beta2 (Homo sapiens, UniProt P17787+Q15822); assay: Inhibitory concentration against Nicotinic acetylcholine receptor alpha2-beta2; Range is 0.3-1.5 nM; type: protein-complex assay
[4] = target: Neuronal acetylcholine receptor; alpha4/beta4 (Homo sapiens, UniProt P30926+P43681); assay: Inhibitory concentration against Nicotinic acetylcholine receptor alpha4-beta4; Range is 0.3-1.5 nM; type: protein-complex assay
[5] = target: Neuronal acetylcholine receptor; alpha3/beta2 (Homo sapiens, UniProt P17787+P32297); assay: Inhibitory concentration against Nicotinic acetylcholine receptor alpha3-beta2; Range is 0.3-1.5 nM; type: protein-complex assay
[6] = target: Neuronal acetylcholine receptor; alpha3/beta4 (Homo sapiens, UniProt P30926+P32297); assay: Inhibitory concentration against Nicotinic acetylcholine receptor alpha3-beta4; Range is 0.3-1.5 nM; type: protein-complex assay
[7] = target: Neuronal acetylcholine receptor; alpha2/beta4 (Homo sapiens, UniProt P30926+Q15822); assay: Inhibitory concentration against Nicotinic acetylcholine receptor alpha2-beta4; Range is 0.3-1.5 nM; type: protein-complex assay
[8] = Inhibitory concentration against Nicotinic acetylcholine receptor alpha-6-alpha-3-beta-2; Range is 0.3-1.5 nM; set-up: species or system Homo sapiens
[9] = Inhibitory concentration against Nicotinic acetylcholine receptor alpha 6/alpha-3-beta-4; Range is 0.3-1.5 nM; set-up: species or system Homo sapiens

Measured: IC50

Neuronal acetylcholine receptor; alpha2/beta4, sequence (P30926 whole entry): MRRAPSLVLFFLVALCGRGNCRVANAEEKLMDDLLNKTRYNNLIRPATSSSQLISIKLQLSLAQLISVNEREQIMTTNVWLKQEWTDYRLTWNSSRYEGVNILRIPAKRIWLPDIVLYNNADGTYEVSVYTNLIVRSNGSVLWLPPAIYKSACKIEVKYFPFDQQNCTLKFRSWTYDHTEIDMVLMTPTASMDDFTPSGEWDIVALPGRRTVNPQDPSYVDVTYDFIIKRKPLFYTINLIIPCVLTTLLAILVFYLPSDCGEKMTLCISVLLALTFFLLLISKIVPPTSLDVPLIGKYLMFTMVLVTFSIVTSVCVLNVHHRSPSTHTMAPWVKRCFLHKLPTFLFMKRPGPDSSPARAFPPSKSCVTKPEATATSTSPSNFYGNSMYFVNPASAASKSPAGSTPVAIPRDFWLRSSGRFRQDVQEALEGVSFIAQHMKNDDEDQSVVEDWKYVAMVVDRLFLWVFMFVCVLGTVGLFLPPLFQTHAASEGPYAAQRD
Neuronal acetylcholine receptor; alpha2/beta4, sequence (Q15822 whole entry): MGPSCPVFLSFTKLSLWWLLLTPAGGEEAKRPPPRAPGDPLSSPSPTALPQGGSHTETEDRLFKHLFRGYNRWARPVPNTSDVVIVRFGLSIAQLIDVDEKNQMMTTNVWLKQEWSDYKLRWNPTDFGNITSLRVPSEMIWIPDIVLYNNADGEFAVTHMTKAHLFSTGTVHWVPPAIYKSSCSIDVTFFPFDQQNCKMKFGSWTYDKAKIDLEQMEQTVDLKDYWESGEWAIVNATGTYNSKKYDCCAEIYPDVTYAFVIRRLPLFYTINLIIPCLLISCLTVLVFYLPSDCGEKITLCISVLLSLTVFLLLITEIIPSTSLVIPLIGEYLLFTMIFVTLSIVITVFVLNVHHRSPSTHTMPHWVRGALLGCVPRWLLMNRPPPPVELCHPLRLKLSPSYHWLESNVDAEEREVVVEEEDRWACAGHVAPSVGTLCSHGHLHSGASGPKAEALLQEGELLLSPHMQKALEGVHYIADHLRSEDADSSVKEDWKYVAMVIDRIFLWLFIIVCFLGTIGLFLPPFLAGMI
Neuronal acetylcholine receptor; alpha4/beta4, sequence (P30926 whole entry): as the sequence (P30926 whole entry) above
Neuronal acetylcholine receptor; alpha4/beta4, sequence (P43681 whole entry): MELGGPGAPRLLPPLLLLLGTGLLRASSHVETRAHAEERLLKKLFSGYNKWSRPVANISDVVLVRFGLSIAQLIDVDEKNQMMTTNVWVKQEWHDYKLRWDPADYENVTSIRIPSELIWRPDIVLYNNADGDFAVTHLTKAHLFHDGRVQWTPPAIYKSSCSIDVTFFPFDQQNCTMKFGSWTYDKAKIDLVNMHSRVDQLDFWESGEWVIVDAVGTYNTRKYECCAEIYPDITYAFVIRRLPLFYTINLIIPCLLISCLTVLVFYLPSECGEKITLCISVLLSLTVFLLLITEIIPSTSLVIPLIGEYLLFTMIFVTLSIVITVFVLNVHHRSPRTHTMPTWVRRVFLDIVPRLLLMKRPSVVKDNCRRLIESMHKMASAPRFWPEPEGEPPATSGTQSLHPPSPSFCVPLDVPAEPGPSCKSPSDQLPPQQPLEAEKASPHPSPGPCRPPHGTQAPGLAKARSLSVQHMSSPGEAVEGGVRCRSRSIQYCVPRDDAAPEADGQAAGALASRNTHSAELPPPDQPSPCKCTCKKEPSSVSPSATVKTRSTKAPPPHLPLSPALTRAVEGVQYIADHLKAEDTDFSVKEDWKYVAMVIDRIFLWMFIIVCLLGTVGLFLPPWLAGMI
Neuronal acetylcholine receptor; alpha3/beta4, sequence (P30926 whole entry): as the sequence (P30926 whole entry) above
Neuronal acetylcholine receptor; alpha3/beta4, sequence (P32297 whole entry): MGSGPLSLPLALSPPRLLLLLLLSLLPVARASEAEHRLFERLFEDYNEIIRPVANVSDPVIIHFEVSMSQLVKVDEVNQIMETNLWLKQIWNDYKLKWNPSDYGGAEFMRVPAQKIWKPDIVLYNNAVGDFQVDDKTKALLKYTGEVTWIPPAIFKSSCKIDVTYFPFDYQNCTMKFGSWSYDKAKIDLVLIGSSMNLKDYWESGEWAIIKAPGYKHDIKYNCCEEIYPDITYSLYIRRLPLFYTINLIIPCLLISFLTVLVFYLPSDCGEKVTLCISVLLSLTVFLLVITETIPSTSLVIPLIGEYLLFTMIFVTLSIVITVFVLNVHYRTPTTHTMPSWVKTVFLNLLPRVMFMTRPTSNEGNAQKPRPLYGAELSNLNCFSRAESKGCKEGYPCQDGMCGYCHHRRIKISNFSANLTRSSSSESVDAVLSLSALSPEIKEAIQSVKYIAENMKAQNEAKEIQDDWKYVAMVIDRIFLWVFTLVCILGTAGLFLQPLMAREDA
Neuronal acetylcholine receptor; alpha2/beta2, sequence (P17787 whole entry): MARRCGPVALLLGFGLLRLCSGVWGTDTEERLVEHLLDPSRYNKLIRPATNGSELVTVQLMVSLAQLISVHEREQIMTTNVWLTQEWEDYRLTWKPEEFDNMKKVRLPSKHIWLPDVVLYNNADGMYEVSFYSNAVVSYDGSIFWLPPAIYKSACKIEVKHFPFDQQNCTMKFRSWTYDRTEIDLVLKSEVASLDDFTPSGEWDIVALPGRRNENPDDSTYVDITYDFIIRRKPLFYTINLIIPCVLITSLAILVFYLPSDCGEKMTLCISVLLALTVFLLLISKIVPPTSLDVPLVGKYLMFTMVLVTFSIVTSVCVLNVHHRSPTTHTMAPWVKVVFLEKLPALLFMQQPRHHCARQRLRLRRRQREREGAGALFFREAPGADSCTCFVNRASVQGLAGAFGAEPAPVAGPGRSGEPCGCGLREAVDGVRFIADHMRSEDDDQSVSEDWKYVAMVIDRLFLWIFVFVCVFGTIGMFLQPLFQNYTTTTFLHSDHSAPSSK
Neuronal acetylcholine receptor; alpha2/beta2, sequence (Q15822 whole entry): as the sequence (Q15822 whole entry) above
Neuronal acetylcholine receptor; alpha4/beta2, sequence (P17787 whole entry): as the sequence (P17787 whole entry) above
Neuronal acetylcholine receptor; alpha4/beta2, sequence (P43681 whole entry): as the sequence (P43681 whole entry) above
Neuronal acetylcholine receptor; alpha3/beta2, sequence (P17787 whole entry): as the sequence (P17787 whole entry) above
Neuronal acetylcholine receptor; alpha3/beta2, sequence (P32297 whole entry): as the sequence (P32297 whole entry) above
Neuronal acetylcholine receptor subunit alpha-7, sequence (P36544 whole entry): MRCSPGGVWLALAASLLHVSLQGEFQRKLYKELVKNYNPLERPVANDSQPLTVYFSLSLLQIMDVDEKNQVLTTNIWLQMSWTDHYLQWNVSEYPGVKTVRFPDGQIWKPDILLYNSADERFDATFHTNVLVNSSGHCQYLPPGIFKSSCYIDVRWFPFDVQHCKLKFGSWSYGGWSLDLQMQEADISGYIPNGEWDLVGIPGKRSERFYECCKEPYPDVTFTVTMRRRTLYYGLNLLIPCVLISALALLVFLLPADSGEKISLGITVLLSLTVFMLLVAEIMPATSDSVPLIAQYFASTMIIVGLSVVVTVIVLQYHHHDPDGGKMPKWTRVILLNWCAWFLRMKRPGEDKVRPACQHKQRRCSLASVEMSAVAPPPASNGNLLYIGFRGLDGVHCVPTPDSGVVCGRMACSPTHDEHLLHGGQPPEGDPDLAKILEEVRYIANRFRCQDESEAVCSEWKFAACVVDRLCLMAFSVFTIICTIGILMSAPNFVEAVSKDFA

CC(C)C[C@H](NC(=O)[C@@H](NC(=O)[C@H](C)NC(=O)[C@H](CS)NC(=O)[C@@H]1CCCN1C(=O)[C@@H]1CCCN1C(=O)[C@@H](NC(=O)[C@H](CO)NC(=O)[C@H](CS)NC(=O)[C@H](CS)NC(=O)CN)[C@@H](C)O)C(C)C)C(=O)N[C@@H](Cc1ccc(O)cc1)C(=O)N[C@@H](CS)C(=O)NCC(=O)N[C@@H](CCCNC(=N)N)C(=O)N[C@@H](CCCNC(=N)N)C(=O)N[C@H](C=O)CCCNC(=N)N (H-GCCSTPPCAVLYCGRRR-aldehyde)
1.5 nM: [1] | [2] | [3] | [4] | [5] | [6] | [7]

CC(C)C[C@H](NC(=O)[C@@H](NC(=O)[C@H](C)NC(=O)[C@H](CS)NC(=O)[C@@H]1CCCN1C(=O)[C@@H]1CCCN1C(=O)[C@@H](NC(=O)[C@H](CO)NC(=O)[C@H](CS)NC(=O)[C@H](CS)NC(=O)CN)[C@@H](C)O)C(C)C)C(=O)N[C@@H](Cc1ccc(O)cc1)C(=O)N[C@@H](CS)C(=O)NCC(=O)N[C@@H](CCCN=C(N)N)C(=O)N[C@@H](CCCN=C(N)N)C(=O)N[C@H](C=O)CCCN=C(N)N (H-GCCSTPPCAVLYCGRRR-aldehyde)
1.5 nM: [8] | [9]
